# Data taken from patent US4260599A, “Antifibrotic substance P-1894B” (Takeda Chemical Industries, Ltd., priority 1978, dated 1981).
# Tests used:
# [1] = target: T1, protocollagen proline hydroxylase (Gallus gallus, UniProt P16924); test: Protocollagen proline hydroxylase inhibitor activity; type: biochemical; settings: partially purified enzyme from chick embryos; substrate (Pro-Pro-Gly)5.4H2O
# T1 construct: partially purified enzyme preparation obtained from chick embryos; from tissue; host or cells: chick embryos
# T1 sequence (P16924 1-516): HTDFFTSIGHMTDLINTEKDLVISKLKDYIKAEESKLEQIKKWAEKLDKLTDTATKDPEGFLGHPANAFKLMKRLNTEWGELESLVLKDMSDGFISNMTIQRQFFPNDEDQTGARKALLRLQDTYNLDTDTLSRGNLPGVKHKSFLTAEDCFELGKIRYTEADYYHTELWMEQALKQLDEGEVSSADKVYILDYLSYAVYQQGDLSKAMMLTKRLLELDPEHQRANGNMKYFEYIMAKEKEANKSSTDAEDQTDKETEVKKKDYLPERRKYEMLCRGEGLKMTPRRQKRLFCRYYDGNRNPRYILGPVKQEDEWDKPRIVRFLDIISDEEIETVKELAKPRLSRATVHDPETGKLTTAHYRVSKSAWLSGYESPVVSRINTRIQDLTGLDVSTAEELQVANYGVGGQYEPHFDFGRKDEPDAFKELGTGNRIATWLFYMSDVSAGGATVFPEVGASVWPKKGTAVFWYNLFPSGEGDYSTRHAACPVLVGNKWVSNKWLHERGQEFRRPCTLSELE
# T1 sequence (P09102 23-515 partner): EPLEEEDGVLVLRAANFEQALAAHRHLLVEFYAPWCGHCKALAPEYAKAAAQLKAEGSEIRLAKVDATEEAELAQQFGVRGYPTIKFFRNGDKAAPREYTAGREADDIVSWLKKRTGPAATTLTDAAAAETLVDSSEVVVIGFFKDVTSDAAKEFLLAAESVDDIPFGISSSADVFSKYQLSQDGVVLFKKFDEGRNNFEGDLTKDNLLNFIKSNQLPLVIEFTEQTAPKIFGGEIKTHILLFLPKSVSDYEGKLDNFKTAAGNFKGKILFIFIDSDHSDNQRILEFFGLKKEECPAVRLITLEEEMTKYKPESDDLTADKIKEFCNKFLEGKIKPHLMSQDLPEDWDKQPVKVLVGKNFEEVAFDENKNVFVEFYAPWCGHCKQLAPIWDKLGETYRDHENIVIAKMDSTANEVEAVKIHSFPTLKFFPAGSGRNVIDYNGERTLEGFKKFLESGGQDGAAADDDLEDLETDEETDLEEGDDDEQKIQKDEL
# [2] = tested on: protocollagen proline hydroxylase; test: Carbon tetrachloride-induced hepatic cirrhosis: protocollagen proline hydroxylase activity in the liver; type: in vivo, Sprague-Dawley rats; settings: for Protocollagen proline hydroxylase: liver, 4 weeks, CCl4 group 504 ± 87
# Method: (§1) Female Sprangue-Dawley rats weighing approximately 110 g each were divided into 4 groups. Group I (control) received saline (1 ml/rat) and Groups II, III and IV received 10% CCl4 -olive oil mixture (1 ml/rat) intraperitoneally twice weekly for a total 8 doses. Groups III and IV received P-1894B orally with food for 4 weeks. Average doses of P-1894B in Groups III and IV were 3.25 and 6.16 mg/kg/day, respectively. The rats were sacrificed a day after the last injection and the livers were immediately removed for the assays.
# A 10% homogenate of the liver was prepared in 20 mM Tris-HCl buffer, pH 7.5, containing 0.2 M NaCl, 0.1 M glycine, 5×10^-5 M 1,4-dithiothreitol and 0.1% Triton (polyethylene glycol p-isooctylphenyl ether) X-100 using a Polytron homogenizer. The homogenate was centrifuged at 15,000 g for 20 min and the clear supernatant was assayed for proline hydroxylase activity by the method of Hutton et al [Anal. Biochem. 16, 384-394 (1966)]. The protein content of the homogenate was measured by the method of Lowry et al [J. Biol. Chem. 193, 265-275 (1951)] using bovine serum albumin as the standard.
# [3] = Carbon tetrachloride-induced hepatic cirrhosis: body weight; type: in vivo, Sprague-Dawley rats; settings: 4 weeks
# Method: as §1
# pKa by titrimetry = type: physicochemical; settings: in 66.7% aqueous DMF
# Solubility = type: physicochemical
# [4] = tested on: collagen biosynthesis (uterus); test: Collagen biosynthesis inhibiting activity in uteri of 17β-estradiol-treated rats; type: in vivo, Sprague-Dawley rats
# Method: (§2) Basically in accordance with a procedure described by R. A. Salvador et al [Arch. Biochem. Biophys. 174, 382 (1976)], 0.3 mg/kg was intraperitoneally administered to Sprague-Dawley rats (female, 3 weeks old) once daily for 6 days and the amounts of collagen and non-collagenous proteins in the uteri were compared with the figures for control.
# [5] = Body weight of rats in the uterus collagen test; type: in vivo, Sprague-Dawley rats; settings: 0.3 mg/kg i.p. once daily for 6 days + 17β-estradiol (5 μg); groups of 4 rats
# Method: as §2
# [6] = tested on: hydroxyproline content of the liver (collagen biosynthesis); test: Carbon tetrachloride-induced hepatic cirrhosis: hydroxyproline content of the liver; type: in vivo, Sprague-Dawley rats; settings: for Hydroxyproline: liver, 4 weeks, CCl4 group 145.8 ± 18.3
# Method: as §1
# Hydroxyproline content of the liver was measured in 6 N HCl hydrolysate (110° C., 22h) by the method of Blumenkrantz et al [Anal. Biochem. 63, 331-340 (1975)].
# [7] = 6.16 mg/kg/day, p.o., compared to livers of CCl4-fibrotic rats
# [8] = CCl4 + P-1894B 3.25 mg/kg/day orally with food
# [9] = CCl4 + P-1894B 6.16 mg/kg/day orally with food, P<0.05 vs CCl4, n=5
# [10] = 0.3 mg/kg i.p. once daily for 6 days + 17β-estradiol (5 μg)
smiles,measurement,setting,value
C[C@@H]1O[C@@H](O[C@H]2CC[C@H](O[C@H]3[C@H](O)C[C@H](c4ccc5c(c4O)C(=O)C4=C(C5=O)[C@@]5(O)C(=O)C[C@](C)(O[C@H]6CC[C@H](O[C@H]7C=CC(=O)[C@H](C)O7)[C@H](C)O6)C[C@@]5(O)C=C4)O[C@@H]3C)O[C@H]2C)C=CC1=O [P-1894B],concentration required for a 50% inhibition of 100 μg (as protein) of partially purified enzyme,[1],about 7 μg/ml
same,specific activity of protocollagen proline hydroxylase in the liver (in words),[2]; [7],significantly decreased
same,Protocollagen proline hydroxylase,[2]; [8],457 ± 68 dpm/mg of protein
same,Protocollagen proline hydroxylase,[2]; [9],357 ± 15 dpm/mg of protein
same,"weight, final","[3]; CCl4 + P-1894B 3.25 mg/kg/day orally with food, initial 112 ± 9",199 ± 19 g
same,"weight, final","[3]; CCl4 + P-1894B 6.16 mg/kg/day orally with food, initial 111 ± 5",198 ± 9 g
same,PKa,pKa by titrimetry,10.15
same,Solubility,"Solubility; in chloroform, dioxane, ethyl acetate, dimethylsulfoxide, acetone, methyl ethyl ketone, pyridine, methanol, ethanol, benzene, toluene, diethyl ether and 0.1 N NaOH",Readily soluble or soluble
same,Solubility,"Solubility; in petroleum ether, n-hexane and cyclohexane",sparingly soluble or insoluble
same,inhibition of the biosynthesis of collagen (in words),[4]; 0.3 mg/kg i.p. once daily for 6 days,inhibited the biosynthesis of collagen specifically and significantly
same,"% Inhibition, Collagen",[4]; [10],78%
same,"% Inhibition, Non-collagenous protein",[4]; [10],-21%
same,Non-collagenous protein in uterus,"[4]; 0.3 mg/kg i.p. once daily for 6 days + 17β-estradiol (5 μg), = total protein - collagen, control (2) 24.21 ± 7.21",26.99 ± 4.67 mg
same,Collagen in uterus,"[4]; 0.3 mg/kg i.p. once daily for 6 days + 17β-estradiol (5 μg), groups of 4 rats, control (2) 4.39 ± 0.16, p < 0.01 vs control (2)",3.41 ± 0.22 mg
same,Total protein of uterus,"[4]; 0.3 mg/kg i.p. once daily for 6 days + 17β-estradiol (5 μg), groups of 4 rats, control (2) 28.6 ± 7.3",30.4 ± 5.0 mg
same,Body weight of rats,[5],72 ± 5 g
same,hydroxyproline content in the liver (in words),[6]; [7],significantly decreased
same,Hydroxyproline,[6]; [8],132.4 ± 29.6 μg/100 mg of protein
same,Hydroxyproline,[6]; [9],122.6 ± 14.0 μg/100 mg of protein
